Measured values taken from patent US20230149362A1, “NEW CAPSULE COMPOSITION FOR PERORAL ADMINISTRATION” (Vicore Pharma AB, priority 2020, published 2023).
Structures can show the parent of a compound that is named as a salt. Where two headings read alike, the source gives them in different places.

Tests used:
Type in all cases: physicochemical
[1] = Solubility of C21 sodium salt in aqueous vehicles; conditions: for solubility: thermodynamic from solid, saturation not reached, read-out: Concentration (solubility)
Experimental: In this experiment, C21 sodium salt (Syntagon AB) was added to the vehicle, small amounts at a time. About 20-30 mg of the sodium salt was easily dissolved in all the vehicles tested. Salt was continuously added to the same sample in an attempt to obtain a saturated solution. In this way, higher amounts, such as 40-60 mg/mL could be dissolved. The solubility is probably even higher than this in the vehicles tested, but this was not established in view of the limited amount of drug compound available.

[2] = Stability of aqueous solutions of C21 under four storage conditions (sensitivity to light); conditions: for Amount of Free C21, % of initial / Solution pH: sodium salt solution
Experimental: The stability of free C21 in 0.9% NaCl pH 9.4 was investigated.
Solutions of 1 mg/mL of C21 were studied for four weeks under four different storage conditions. The solution was filtered through a 0.22 sterile syringe filter to minimize bacterial growth during the stability test. The samples were analysed by HPLC for purity.
The results are summarised in Table 3 below, in which the amount of C21 is given as a percentage of the initial amount of drug. Solution pHs were also measured and are shown within parenthesis in Table 3.
The stability of the sodium salt of C21 was also investigated under the same storage conditions.
At the time for analysis of the one week samples, it was noted that the heating cabinet for storage of samples at 40° C. was broken. In view of this, these samples were thereafter kept at room temperature for three days.

[3] = Compatibility study of C21 sodium salt with lipid-based ingredients and capsule shell components
Experimental: Experiments were then performed to assess the chemical compatibility of C21 with selected pharmaceutically-acceptable lipid-based ingredients (some, but not all, of which were also studied in Example 3 above), as well as the main soft shell gelatin capsule components, under accelerated conditions.
The compatibility study was performed by storing at 40° C. and 75% RH for eight weeks in a climatic chamber (Weiss Technik), during which an analysis of impurities formed was performed after four (T4) and eight (T8) weeks.
An additional experiment was performed by storing for eight weeks at room temperature in the laboratory (with controlled temperature and humidity).
Testing of C21 sodium salt in the absence of excipients was performed as a reference.
In Table 6, the generic names and the sources of the various excipients are the same as presented above, e.g. in Table 5.
Samples A0 to A16 and B1 were prepared in 20 mL glass vials, with two preparations being prepared for each time point. Samples C1 to C16 and D1 were prepared in 20 mL glass vials, with one preparation for each time point.
Assay and impurity evaluations were made using the same Waters UPLC Acquity system and essentially the same chromatographic conditions as described in Example 3 above.
The impurity analysis is summarized in Table 7 below, in which C21 assay values (I) and impurity values (II) are presented as % recovery and represent the average value obtained for each mixture on the two sample preparations.

[4] = 40° C., dark, 1 week, heating cabinet found broken
[5] = T4 (four weeks), 40° C. and 75% RH
[6] = T8 (eight weeks), 40° C. and 75% RH
[7] = T8 (eight weeks), Ambient temp.

CCCCOC(=O)NS(=O)(=O)c1sc(CC(C)C)cc1-c1ccc(Cn2ccnc2)cc1 [C21 sodium salt, N-butyloxycarbonyl-3-(4-imidazol-1-ylmethylphenyl)-5-iso-butylthiophene-2-sulfonamide]
solubility ([1]; aqueous buffer, vehicle PBS pH 7.4, measured pH 9.4): > 40 mg/mL
solubility compared with free C21 ([1]; aqueous vehicles): considerably higher than free C21
solubility ([1]; saline or isotonic, vehicle 0.9% NaCl, pH 9.3): > 40 mg/mL
amount that could be dissolved ([1]; vehicles tested (H2O, 0.9% NaCl, PBS), salt added continuously): 40 to 60 mg/mL
solubility ([1]; water, vehicle H2O, pH 9.8): > 65 mg/mL
light-induced degradation ([2]; aqueous solution, RT/light): light-induced degradation occurs
Amount of Free C21, % of initial ([2]; 5° C., dark, 1 week): 108 % of initial
Solution pH ([2]; 5° C., dark, 1 week): (8.5)
Amount of Free C21, % of initial ([2]; 5° C., dark, 2 weeks): 113 % of initial
Solution pH ([2]; 5° C., dark, 2 weeks): (8.4)
Amount of Free C21, % of initial ([2]; 5° C., dark, 3 weeks): 113 % of initial
Solution pH ([2]; 5° C., dark, 3 weeks): (8.5)
Amount of Free C21, % of initial ([2]; 5° C., dark, 4 weeks): 112 % of initial
Solution pH ([2]; 5° C., dark, 4 weeks): (8.5)
Amount of Free C21, % of initial ([2]; 5° C., dark, Initial): 100 % of initial
Solution pH ([2]; 5° C., dark, Initial): (8.3)
Amount of Free C21, % of initial [2, 4]: 111 % of initial
Solution pH [2, 4]: (8.6)
Amount of Free C21, % of initial ([2]; 40° C., dark, 2 weeks): 111 % of initial
Solution pH ([2]; 40° C., dark, 2 weeks): (8.5)
Amount of Free C21, % of initial ([2]; 40° C., dark, 3 weeks): 109 % of initial
Solution pH ([2]; 40° C., dark, 3 weeks): (8.7)
Amount of Free C21, % of initial ([2]; 40° C., dark, 4 weeks): 118 % of initial
Solution pH ([2]; 40° C., dark, 4 weeks): (8.1)
Amount of Free C21, % of initial ([2]; 40° C., dark, Initial): 100 % of initial
Solution pH ([2]; 40° C., dark, Initial): (8.3)
Amount of Free C21, % of initial ([2]; RT, dark, 1 week): 115 % of initial
Solution pH ([2]; RT, dark, 1 week): (8.6)
Amount of Free C21, % of initial ([2]; RT, dark, 2 weeks): 110 % of initial
Solution pH ([2]; RT, dark, 2 weeks): (8.8)
Amount of Free C21, % of initial ([2]; RT, dark, 3 weeks): 111 % of initial
Solution pH ([2]; RT, dark, 3 weeks): (8.8)
Amount of Free C21, % of initial ([2]; RT, dark, 4 weeks): 112 % of initial
Solution pH ([2]; RT, dark, 4 weeks): (8.2)
Amount of Free C21, % of initial ([2]; RT, dark, Initial): 100 % of initial
Solution pH ([2]; RT, dark, Initial): (8.3)
Amount of Free C21, % of initial ([2]; RT, light, 1 week): 108 % of initial
Solution pH ([2]; RT, light, 1 week): (8.4)
Amount of Free C21, % of initial ([2]; RT, light, 2 weeks): 96 % of initial
Solution pH ([2]; RT, light, 2 weeks): (8.0)
Amount of Free C21, % of initial ([2]; RT, light, 3 weeks): 72 % of initial
Solution pH ([2]; RT, light, 3 weeks): (8.3)
Amount of Free C21, % of initial ([2]; RT, light, 4 weeks): 9 % of initial
Solution pH ([2]; RT, light, 4 weeks): (7.3)
Amount of Free C21, % of initial ([2]; RT, light, Initial): 100 % of initial
Solution pH ([2]; RT, light, Initial): (8.3)
C21 assay values (I) ([3]; T0): 98.2 % recovery
impurity values (II) ([3]; T0): 0.24 % recovery
C21 assay values (I) [3, 5]: 102.2 % recovery
impurity values (II) [3, 5]: 0.23 % recovery
C21 assay values (I) [3, 6]: 101.3 % recovery
impurity values (II) [3, 6]: 0.25 % recovery
C21 assay values (I) [3, 7]: 102.0 % recovery
impurity values (II) [3, 7]: 0.24 % recovery
